Test results taken from publication PMC6820543, “Pig liver esterases PLE1 and PLE6: heterologous expression, hydrolysis of common antibiotics and pharmacological consequences” (Scientific Reports, 2019).

Experiments:
[1] = system: T1, PLE6 (pig liver esterase 6); assay: LC-MS/MS product quantification, Lineweaver-Burk; assay type: biochemical, Sus scrofa; conditions: Tris-HCl 50 mM pH 7.4, 37 °C, 12.5-800 µM substrate
T1 construct: recombinant from pET-15b in E. coli Origami (DE3) with chaperone pGro7, His-tag column; cDNA 1698 bp, 566 residues with 18-residue signal peptide, about 60 kDa

purified protein = substrate: CC1(C)S[C@@H]2[C@H](NC(=O)[C@H](N)c3ccc(O)cc3)C(=O)N2[C@H]1C(=O)O; assay: purified protein; conditions: Tris-HCl 50 mM pH 7.4, 37 °C, 12.5-800 µM substrate, beta-lactam amide hydrolysis to amoxicilloic acid
[2] = substrate: CC1(C)S[C@@H]2[C@H](NC(=O)[C@H](N)c3ccccc3)C(=O)N2[C@H]1C(=O)O; assay: LC-MS/MS product quantification, Lineweaver-Burk; assay type: biochemical, Sus scrofa; conditions: Tris-HCl 50 mM pH 7.4, 37 °C, 12.5-800 µM substrate, beta-lactam amide hydrolysis to aminobenzyl-penicilloic acid

CC1(C)S[C@@H]2[C@H](NC(=O)[C@H](N)c3ccc(O)cc3)C(=O)N2[C@H]1C(=O)O [amoxicillin]
Km ([1]; beta-lactam amide hydrolysis to amoxicilloic acid): 36.7 µM

CC1(C)S[C@@H]2[C@H](NC(=O)[C@H](N)c3ccccc3)C(=O)N2[C@H]1C(=O)O [ampicillin]
Km ([1]; beta-lactam amide hydrolysis to aminobenzyl-penicilloic acid): 64.2 µM

B1: PLE1 (pig liver esterase 1) (Sus scrofa) (protein)
chain: GQPASPPVVDTAQGRVLGKYVSLEGLAQPVAVFLGVPFAKPPLGSLRFAPPQPAEPWSFVKNTTSYPPMCCQDPVVEQMTSDLFTNGKERLTLEFSEDCLYLNIYTPADLTKRGRLPVMVWIHGGGLVLGGAPMYDGVVLAAHENVVVVAIQYRLGIWGFFSTGDEHSRGNWGHLDQVAALHWVQENIANFGGDPGSVTIFGESAGGESVSVLVLSPLAKNLFHRAISESGVALTVALVRKDMKAAAKQIAVLAGCKTTTSAVFVHCLRQKSEDELLDLTLKMKFLTLDFHGDQRESHPFLPTVVDGVLLPKMPEEILAEKDFNTVPYIVGINKQEFGWLLPTMMGFPLSEGKLDQKTATSLLWKSYPIANIPEELTPVATDKYLGGTDDPVKKKDLFLDLMGDVMFGVPSVTVARQHRDAGAPTYMYEFQYRPSFSSDKKPKTVIGDHGDEIFSVFGFPLLKGDAPEEEVSLSKMVMKFWANFARSGNPNGEGLPHWPMYDQEEGYLQIGVNTQAAKRLKGEEVAFWNDLLSKEAAKKPPKIKHAEL
notes: recombinant from pET-15b in E. coli Origami (DE3) with chaperone pGro7, His-tag column; cDNA 1698 bp, 566 residues with 18-residue signal peptide, about 60 kDa
Km (purified protein): 62.04 µM
Km [2]: 89.20 µM
